According to patent US8580516B2, “Methods and compositions for direct detection of DNA damage” (University of Chicago, priority 2008, dated 2013):

Experiments:
[1] = Privat and Sowers 1996; cited from earlier work
[2] = test system: several cell lines; conditions: cited from earlier work
[3] = test system: mammalian cells; conditions: via misincorporation and/or mispairing during replication; cited from earlier work
[4] = test system: HL60 cells; assay: In vitro differentiation of HL60 cells to neutrophils, CD11b flow cytometry; format: cell-based; conditions: 1 μM, five days, FITC anti-human CD11b flow cytometry
Procedure: HL60 cells were grown to confluence (1×10^6 cells/ml) in Roswell Park Memorial Institute media (“RPMI”) 1640 media supplemented with 10% fetal bovine serum, 1% penicillin/streptomycin and 2 mM L-glutamine at 37° C. in 5% CO2 and treated with ethanol carrier, 1 μM ATRA or 1 μM ATRA, 6 nM Vitamin D3 and 30 ng/ml G-CSF for five days.

In the case of `O=Cc1cn([C@H]2C[C@H](O)[C@@H](CO)O2)c(=O)[nH]c1=O` [5-FodU, 5-formyldeoxyuridine], the pKa [1] is listed as 6.8, the IC50 ([2]; 5-FodU fed to tissue culture cells, several cell lines, read-out: IC50 (toxicity)) is listed as roughly 1000 nM and the “toxicity in cells lacking thymidine kinase or thymidylate synthetase” value ([2]; cells lacking thymidine kinase or thymidylate synthetase) is listed as “lost”.

For `O=Cc1cn([C@H]2C[C@H](O)[C@@H](COP(=O)(O)OP(=O)(O)OP(=O)(O)O)O2)c(=O)[nH]c1=O` [5-FodUTP, 5-formyl deoxyuridine triphosphate], the “mutations induced in cells” value [3] is given as “induces both transition and transversion mutations”.

In the case of `O=c1ccn([C@@H]2O[C@H](CO)[C@@H](O)[C@H]2O)c(=O)[nH]1` [uridine], the pKa [1] is listed as 9.4.

In the case of `CC1=C(/C=C/C(C)=C/C=C/C(C)=C/C(=O)O)C(C)(C)CCC1` [ATRA, all-trans retinoic acid], the “expression of CD11b” value [4] is reported as “increased expression of CD11b”.
